Source: patent US8802597B2, “Herbicidal pyrimidines” (E I du Pont de Nemours and Company, priority 2003, dated 2014)

Experiments:
Assay type in all cases: in vivo
[1] = system: Surinam grass (Brachiaria decumbens); test: Test C pre/postemergence; conditions: for Surinam Grass plant response rating: scale 0 to 100 (0 no effect, 100 complete control)
Method in brief: (§1)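 Visual injury ratings, 0 (no effect) to 100 (complete control), made 12 to 14 days after treatment by comparison with untreated controls. Greenhouse plants received test chemical in a surfactant-containing non-phytotoxic solvent, either preemergence on planted seeds or postemergence at the 1- to 4-leaf stage.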

[2] = system: common (oilseed) sunflower (Helianthus annuus); test: Test C pre/postemergence; conditions: Preemergence
Method in brief: as §1

[3] = system: common ragweed (Ambrosia elatior); test: Test C pre/postemergence; conditions: for Ragweed plant response rating: scale 0 to 100 (0 no effect, 100 complete control)
Method in brief: as §1

[4] = system: giant foxtail (Setaria faberii); test: Test C pre/postemergence; conditions: for Foxtail, Giant plant response rating: scale 0 to 100 (0 no effect, 100 complete control)
Method in brief: as §1

[5] = system: johnsongrass (Sorghum halepense); test: Test C pre/postemergence; conditions: for Johnsongrass plant response rating: scale 0 to 100 (0 no effect, 100 complete control)
Method in brief: as §1

kochia (Kochia scoparia) = test: Test C pre/postemergence; conditions: for Kochia plant response rating: scale 0 to 100 (0 no effect, 100 complete control)
Method in brief: as §1

[6] = system: morningglory (Ipomoea coccinea); test: Test C pre/postemergence; conditions: for Morningglory plant response rating: scale 0 to 100 (0 no effect, 100 complete control)
Method in brief: as §1

[7] = system: pigweed (Amaranthus retroflexus); test: Test C pre/postemergence; conditions: for Pigweed plant response rating: scale 0 to 100 (0 no effect, 100 complete control)
Method in brief: as §1

soybean (Glycine max) = test: Test C pre/postemergence; conditions: for Soybean plant response rating: scale 0 to 100 (0 no effect, 100 complete control)
Method in brief: as §1

[8] = system: woolly cupgrass (Eriochloa villosa); test: Test C pre/postemergence; conditions: for Cupgrass, Woolly plant response rating: scale 0 to 100 (0 no effect, 100 complete control)
Method in brief: as §1

[9] = system: yellow nutsedge (Cyperus esculentus); test: Test C pre/postemergence; conditions: for Nutsedge, Yellow plant response rating: scale 0 to 100 (0 no effect, 100 complete control)
Method in brief: as §1

[10] = system: chickweed (Stellaria media); test: Test C postemergence; conditions: for Plant response rating, Chickweed: scale 0 to 100
Method in brief: as §1

[11] = Postemergence, 250 g ai/ha, scale 0 to 100
[12] = Postemergence, 500 g ai/ha, scale 0 to 100
[13] = Preemergence, 62 g ai/ha, scale 0 to 100, 0 no effect, 100 complete control
[14] = Preemergence, 125 g ai/ha, scale 0 to 100
[15] = Preemergence, 250 g ai/ha, scale 0 to 100
[16] = Preemergence, 500 g ai/ha, scale 0 to 100

For CCCOC(=O)c1nc(C2CC2)nc(N)c1Br [Compound 15], the “Surinam Grass plant response rating” value ([1]; Postemergence, 62 g ai/ha) was 0, the “Surinam Grass plant response rating” value ([1]; Postemergence, 125 g ai/ha) was 20 and the “Plant response rating, Surinam Grass” value [1, 11] was 55. The “Plant response rating, Surinam Grass” value [1, 12] was 65, the “Plant response rating, Surinam Grass” value [1, 13] was 15 and the “Plant response rating, Surinam Grass” value [1, 14] was 65. For the same compound, the “Plant response rating, Surinam Grass” value [1, 15] was 75, the “Plant response rating, Surinam Grass” value [1, 16] was 95 and the “Plant response rating, Sunflower” value ([2]; 62 g ai/ha, scale 0 to 100, 0 no effect, 100 complete control) was 65. For the same compound, the “Plant response rating, Sunflower” value ([2]; 125 g ai/ha, scale 0 to 100) was 100, the “Plant response rating, Sunflower” value ([2]; 250 g ai/ha, scale 0 to 100) was 100 and the “Plant response rating, Sunflower” value ([2]; 500 g ai/ha, scale 0 to 100) was 100. For the same compound, the “Ragweed plant response rating” value ([3]; Postemergence, 62 g ai/ha) was 75, the “Ragweed plant response rating” value ([3]; Postemergence, 125 g ai/ha) was 85 and the “Plant response rating, Ragweed” value [3, 11] was 90. For the same compound, the “Plant response rating, Ragweed” value [3, 12] was 95, the “Plant response rating, Ragweed” value [3, 13] was 90 and the “Plant response rating, Ragweed” value [3, 14] was 95. For the same compound, the “Plant response rating, Ragweed” value [3, 15] was 100, the “Plant response rating, Ragweed” value [3, 16] was 100 and the “Foxtail, Giant plant response rating” value ([4]; Postemergence, 62 g ai/ha) was 45. For the same compound, the “Foxtail, Giant plant response rating” value ([4]; Postemergence, 125 g ai/ha) was 60, the “Plant response rating, Foxtail, Giant” value [4, 11] was 65 and the “Plant response rating, Foxtail, Giant” value [4, 12] was 70. The “Plant response rating, Foxtail, Giant” value [4, 13] was 0, the “Plant response rating, Foxtail, Giant” value [4, 14] was 0 and the “Plant response rating, Foxtail, Giant” value [4, 15] was 65. The “Plant response rating, Foxtail, Giant” value [4, 16] was 80, the “Johnsongrass plant response rating” value ([5]; Postemergence, 62 g ai/ha) was 20 and the “Johnsongrass plant response rating” value ([5]; Postemergence, 125 g ai/ha) was 55. For the same compound, the “Plant response rating, Johnsongrass” value [5, 11] was 70, the “Plant response rating, Johnsongrass” value [5, 12] was 80 and the “Plant response rating, Johnsongrass” value [5, 13] was 20. For the same compound, the “Plant response rating, Johnsongrass” value [5, 14] was 65, the “Plant response rating, Johnsongrass” value [5, 15] was 75 and the “Plant response rating, Johnsongrass” value [5, 16] was 95. The “Kochia plant response rating” value (kochia (Kochia scoparia); Postemergence, 62 g ai/ha) was 95, the “Kochia plant response rating” value (kochia (Kochia scoparia); Postemergence, 125 g ai/ha) was 95 and the “Plant response rating, Kochia” value (kochia (Kochia scoparia); [11]) was 100. For the same compound, the “Plant response rating, Kochia” value (kochia (Kochia scoparia); [12]) was 100, the “Plant response rating, Kochia” value (kochia (Kochia scoparia); [13]) was 95 and the “Plant response rating, Kochia” value (kochia (Kochia scoparia); [14]) was 100. The “Plant response rating, Kochia” value (kochia (Kochia scoparia); [15]) was 100, the “Plant response rating, Kochia” value (kochia (Kochia scoparia); [16]) was 100 and the “Morningglory plant response rating” value ([6]; Postemergence, 62 g ai/ha) was 90. For the same compound, the “Morningglory plant response rating” value ([6]; Postemergence, 125 g ai/ha) was 95, the “Plant response rating, Morningglory” value [6, 11] was 100 and the “Plant response rating, Morningglory” value [6, 12] was 100. The “Plant response rating, Morningglory” value [6, 13] was 95, the “Plant response rating, Morningglory” value [6, 14] was 100 and the “Plant response rating, Morningglory” value [6, 15] was 100. The “Plant response rating, Morningglory” value [6, 16] was 100, the “Pigweed plant response rating” value ([7]; Postemergence, 62 g ai/ha) was 65 and the “Pigweed plant response rating” value ([7]; Postemergence, 125 g ai/ha) was 70. For the same compound, the “Plant response rating, Pigweed” value [7, 11] was 85, the “Plant response rating, Pigweed” value [7, 12] was 100 and the “Plant response rating, Pigweed” value [7, 13] was 90. For the same compound, the “Plant response rating, Pigweed” value [7, 14] was 100, the “Plant response rating, Pigweed” value [7, 15] was 100 and the “Plant response rating, Pigweed” value [7, 16] was 100. The “Soybean plant response rating” value (soybean (Glycine max); Postemergence, 62 g ai/ha) was 95, the “Soybean plant response rating” value (soybean (Glycine max); Postemergence, 125 g ai/ha) was 95 and the “Plant response rating, Soybean” value (soybean (Glycine max); [11]) was 95. The “Plant response rating, Soybean” value (soybean (Glycine max); [12]) was 100, the “Plant response rating, Soybean” value (soybean (Glycine max); [13]) was 75 and the “Plant response rating, Soybean” value (soybean (Glycine max); [14]) was 90. For the same compound, the “Plant response rating, Soybean” value (soybean (Glycine max); [15]) was 95, the “Plant response rating, Soybean” value (soybean (Glycine max); [16]) was 100 and the “Cupgrass, Woolly plant response rating” value ([8]; Postemergence, 62 g ai/ha) was 0. The “Cupgrass, Woolly plant response rating” value ([8]; Postemergence, 125 g ai/ha) was 50, the “Plant response rating, Cupgrass, Woolly” value [8, 11] was 65 and the “Plant response rating, Cupgrass, Woolly” value [8, 12] was 75. The “Plant response rating, Cupgrass, Woolly” value [8, 13] was 0, the “Plant response rating, Cupgrass, Woolly” value [8, 14] was 20 and the “Plant response rating, Cupgrass, Woolly” value [8, 15] was 85. For the same compound, the “Plant response rating, Cupgrass, Woolly” value [8, 16] was 95, the “Nutsedge, Yellow plant response rating” value ([9]; Postemergence, 62 g ai/ha) was 0 and the “Nutsedge, Yellow plant response rating” value ([9]; Postemergence, 125 g ai/ha) was 0. The “Plant response rating, Nutsedge, Yellow” value [9, 11] was 0, the “Plant response rating, Nutsedge, Yellow” value [9, 12] was 0 and the “Plant response rating, Nutsedge, Yellow” value [9, 13] was 0. For the same compound, the “Plant response rating, Nutsedge, Yellow” value [9, 14] was 0, the “Plant response rating, Nutsedge, Yellow” value [9, 15] was 0 and the “Plant response rating, Nutsedge, Yellow” value [9, 16] was 20. For the same compound, the “Chickweed plant response rating” value ([10]; 62 g ai/ha, scale 0 to 100 (0 no effect, 100 complete control)) was 20, the “Plant response rating, Chickweed” value ([10]; 125 g ai/ha) was 50 and the “Plant response rating, Chickweed” value ([10]; 250 g ai/ha) was 65. For the same compound, the “Plant response rating, Chickweed” value ([10]; 500 g ai/ha) was 85.
